According to US20260069584A1, “METHODS OF TREATING CHRONIC MYELOID LEUKEMIA USING THE TYROSINE KINASE INHIBITOR VODOBATINIB” (Sun Pharma Advanced Research Company Ltd., priority 2022, published 2026):

Assay: Part B: safety, treatment-emergent adverse events, DLT and MTD
Type: in vivo
Excerpt: For the purpose of the present invention, the adverse events were graded as per the National Cancer Institute's, Common Terminology Criteria for Adverse Events (NCI-CTCAE) Version 4.03 and Version 5.0 (https://evs.nci.nih.gov/ftp1/CTCAE/About.html). It is a descriptive terminology which can be utilized for Adverse Event (AE) reporting.
AEs were graded as per NCI-CTCAE Version 5.0. In the present study, along with others most common AEs for which patients were monitored were thrombocytopenia, neutropenia and anemia, any AE reported by the patient after the completion of AE collection period and considered related to the study drug was reported.
Dose Limiting Toxicity (DLT) is defined as the occurrence of any of the following unless clearly and incontrovertibly related to the underlying disease. The hematological DLTs were defined as per the Phase of CML: • a) Grade 3 or higher, or other non-hematological toxicity, including nausea, vomiting and diarrhea, and refractory to standard antiemetic therapy except alopecia and nail disorders; • b) Missed ≥25% of doses over 28 days due to toxicity in Cycle 1; and • c) Any grade of toxicity requiring dose reduction or discontinuation of IMP within the 28-days DLT assessment period (Cycle 1).
Safety Parameters: Parts B and C: Descriptive summaries were provided for the safety variables collected. Continuous variables were summarized using mean, standard deviation, minimum, median, and maximum. Categorical variables were summarized using frequency counts and percentages. For time-to-event variables, other percentiles were presented. In addition, summaries of AEs by intensity, seriousness, frequency, and relationship to IMP are presented. Adverse events (AE) s were coded using the Medical Dictionary for Regulatory Activities (MedDRA) and summarized by System Organ Class (SOC) and Preferred Term (PT).
In this study, the dose-escalation cohort started with an accelerated titration study design (ATD) and shifted to a 3±3 design when subjects in the preceding ATD cohort experienced either grade 2 or higher adverse events (AEs) or dose-limiting toxicity (DLT) during Cycle 1 that was not clearly and incontrovertibly related to the underlying disease or concomitant medications. The DLT period consisted of 28 days (Cycle 1). Subjects experiencing DLTs were managed with dose delays and/or discontinuation and continued in the study until disease progression. Decisions to advance to a succeeding dose level occurred after the evaluation of safety and tolerability data for a given dose level.
For the cohorts, where the 3±3 design applies, 3 subjects were enrolled initially. If 2 of these subjects experienced a Grade 2 or more toxicity (that was not clearly and incontrovertibly related to the underlying disease or concomitant medications), subsequent cohorts were escalated according to smaller increments. Further, if there were no DLTs in the first 3 subjects, dose escalation to the next higher dose level was allowed to proceed. If 1 of the 3 subjects experienced a DLT, that dose level was expanded to 6 subjects (3 additional subjects were enrolled). If 2 subjects at a given dose level experienced a DLT, the MTD was considered to have been exceeded. The next lower dose level was expanded to 6 subjects, or if 6 subjects had already been enrolled and no more than 1 of the 6 subjects experienced a DLT, then this lower dose level was considered the MTD. Additional subjects were enrolled in dose escalation cohorts for further assessment of safety and efficacy of the compound of Formula 1 at doses that were tolerated (i.e., doses that have <2 DLTs in 6 enrolled subjects or <1 DLT in 3 enrolled subjects). Thus 204 mg was arrived at as MTD. A subject experiencing a DLT was allowed to continue therapy with a reduced dose. Subjects who experienced a DLT and recovered were treated at the next lower dose level until disease progression or other events requiring further dose reduction existed. […]

SMILES: Cc1ccc(C(=O)NNC(=O)c2c(C)cccc2Cl)cc1C#Cc1cnc2ccccc2c1 [compound of Formula I, N′-(2-chloro-6-methylbenzoyl)-4-methyl-3-[2-(3-quinolyl)ethynyl]-benzohydrazide]
- grade 3 or 4 AEs (6 patients, prior 2 TKI treatments): 33.4%
- AEs leading to permanent discontinuation (6 pts): 11.3%
- discontinued from the study due to AE (10 subjects, dose expansion at 174 mg): 1 subject
- grade 3 or 4 AEs (19 patients treated with ponatinib): 86.3%
- grade 3 or 4 AEs (28 patients, 3 or more TKI treatments): 80%
- discontinued due to disease progression (41 subjects, dose escalation): 4 subjects
- discontinued due to AEs (41 subjects, dose escalation (1 each at 48, 126, 174 and 204 mg)): 4 subjects
- discontinued from the study (41 subjects, dose escalation cohorts): 11 subjects
- All TEAEs, Any grade (Overall (N = 53)): 51 No of pts
- All TEAEs, Grade 3/4 (Overall (N = 53)): 34 No of pts
- Amylase increased, Any grade (Overall (N = 53)): 5 No of pts
- Amylase increased, Grade 3/4 (Overall (N = 53)): 4 No of pts
- Anemia, Any grade (Overall (N = 53)): 11 No of pts
- Anemia, Grade 3/4 (Overall (N = 53)): 7 No of pts
- Back pain, Any grade (Overall (N = 53)): 7 No of pts
- Back pain, Grade 3/4 (Overall (N = 53)): 0 No of pts
- Constipation, Any grade (Overall (N = 53)): 8 No of pts
- Constipation, Grade 3/4 (Overall (N = 53)): 0 No of pts
- Cough, Any grade (Overall (N = 53)): 11 No of pts
- Cough, Grade 3/4 (Overall (N = 53)): 0 No of pts
- Death, Grade 3/4 (Overall (N = 53)): 0 No of pts
- Decreased appetite, Any grade (Overall (N = 53)): 6 No of pts
- Decreased appetite, Grade 3/4 (Overall (N = 53)): 0 No of pts
- Diarrhoea, Any grade (Overall (N = 53)): 12 No of pts
- Diarrhoea, Grade 3/4 (Overall (N = 53)): 1 No of pts
- Fatigue, Any grade (Overall (N = 53)): 7 No of pts
- Fatigue, Grade 3/4 (Overall (N = 53)): 0 No of pts
- Headache, Any grade (Overall (N = 53)): 8 No of pts
- Headache, Grade 3/4 (Overall (N = 53)): 0 No of pts
- Lipase increased, Any grade (Overall (N = 53)): 5 No of pts
- Lipase increased, Grade 3/4 (Overall (N = 53)): 4 No of pts
- Myalgia, Any grade (Overall (N = 53)): 7 No of pts
- Myalgia, Grade 3/4 (Overall (N = 53)): 0 No of pts
- Nasopharyngitis, Any grade (Overall (N = 53)): 6 No of pts
- Nasopharyngitis, Grade 3/4 (Overall (N = 53)): 0 No of pts
- Nausea, Any grade (Overall (N = 53)): 8 No of pts
- Nausea, Grade 3/4 (Overall (N = 53)): 0 No of pts
- Neutropenia, Any grade (Overall (N = 53)): 8 No of pts
- Neutropenia, Grade 3/4 (Overall (N = 53)): 7 No of pts
- Pruritis, Any grade (Overall (N = 53)): 6 No of pts
- Pruritis, Grade 3/4 (Overall (N = 53)): 0 No of pts
- Pyrexia, Any grade (Overall (N = 53)): 8 No of pts
- Pyrexia, Grade 3/4 (Overall (N = 53)): 1 No of pts
- Rhinitis, Any grade (Overall (N = 53)): 6 No of pts
- Rhinitis, Grade 3/4 (Overall (N = 53)): 0 No of pts
- SAEs, Any grade (Overall (N = 53)): 20 No of pts
- SAEs, Grade 3/4 (Overall (N = 53)): 12 No of pts
- TEAEs Leading to drug withdrawal, Any grade (Overall (N = 53)): 6 No of pts
- TEAEs Leading to drug withdrawal, Grade 3/4 (Overall (N = 53)): 2 No of pts
- TEAEs Related to comp of Formula I, Any grade (Overall (N = 53)): 35 No of pts
- TEAEs Related to comp of Formula I, Grade 3/4 (Overall (N = 53)): 14 No of pts
- TEAEs: Dose discontinued and restarted, Any grade (Overall (N = 53)): 20 No of pts
- TEAEs: Dose discontinued and restarted, Grade 3/4 (Overall (N = 53)): 12 No of pts
- TEAEs: Dose modifications, Any grade (Overall (N = 53)): 11 No of pts
- TEAEs: Dose modifications, Grade 3/4 (Overall (N = 53)): 6 No of pts
- Thrombocytopenia, Any grade (Overall (N = 53)): 22 No of pts
- Thrombocytopenia, Grade 3/4 (Overall (N = 53)): 10 No of pts
